This is an account of results in patent publication US20250134379A1, “Methods for Localization of Cancerous Tissue Using Fluorescent Molecular Imaging Agent for Diagnosis or Treatment” (Vergent Bioscience, Inc., priority 2023, published 2025).

Molecules are shown by their SMILES.

Assay [1] relates to tumor. The assay is described as follows: Intraoperative NIR imaging of patients given VGT-309 before surgery. The format is in vivo, human. Conditions: patient. The text has this: A patient appeared to have a localized tumor, as identified by the preoperative scans, but the surgeon identified lymph node spread during resection with VGT-309. […] Absent from these scans were any evidence of spread to other areas of the lungs or the lymph nodes. […] […] The surgeon also visually examined and biopsied the proximal lymph nodes, neither of which indicated the tumor had spread. […] The surgeon was therefore able to perform a biopsy, which confirmed that the cancer had spread, and as a result re-staged the patient in real-time and performed a radical lymph node dissection. At the end of the procedure, the surgeon removed all traces of the cancer.
However, it was confirmed under NIR that this abnormal lung tissue was in fact cancerous.

Assay [2] relates to tumor. The assay is described as follows: Phase 2 study of VGT-309 in Australia: clinically significant events (CSEs) during tumor removal. The assay is classed as in vivo, human. The conditions noted are these: Phase 2 study in Australia. The text has this:
CSEs are one way to measure whether an imaging agent, such as VGT-309, adds a clinical benefit to the diagnosis and treatment process. In this context, CSEs generally fall into one of three categories: (1) localization of hard-to-find tumors, (2) identification of positive resection margins, and (3) identification of additional primary and metastatic lesions that were not previously detected using existing technologies. […] In a Phase 2 study of VGT-309 in Australia, one third of patients experienced a […]

Another assay deals with cancerous tissue. In words: Preclinical / animal model studies of duration of VGT-309 fluorescence in tissue. The format is in vivo. The text has this: There are several molecular imaging agents that are currently in various stages of development and testing, but of these agents VGT-309 is particularly advantageous. VGT-309 targets and covalently binds to cathepsin targets, which are present in larger amounts in solid tumors and tumor margins than in normal tissues. When this binding occurs, the quencher is cleaved from the molecule and VGT-309 becomes “active” at which point the tumor will fluoresce under near-infrared (NIR) light.

`CC1(C)C(/C=C/C2=C(Cl)C(=C/C=C3/N(CCCCCC(=O)NCCNC(=O)c4c(F)c(F)c(OCC(=O)[C@H](CCCCNC(=O)CCCCCN5/C(=C/C=C/C=C/C=C\C6=[N+](CCCCS(=O)(=O)O)c7ccc8ccccc8c7C6(C)C)C(C)(C)c6c5ccc5ccccc65)NC(=O)[C@H](Cc5ccccc5)NC(=O)OCc5ccccc5)c(F)c4F)c4ccc5cc(S(=O)(=O)O)ccc5c4C3(C)C)/CCC2)=[N+](CCCS(=O)(=O)O)c2ccc(N(CCCS(=O)(=O)O)CCCS(=O)(=O)O)cc21` [VGT-309]: the “detection of lymph node spread under NIR” value with tumor [1] (Example 2, 0.16 mg/kg, approximately 21 hours prior to surgery, biopsy confirmed that the cancer had spread) was “unexpected fluorescence in a more distant lymph node”. Besides, in the assay with tumor [1] (Example 3, 0.32 mg/kg, approximately 18.5 hours prior to surgery), the “identification of metastatic spread / additional tumors under NIR” value is listed as “identify additional tumors using NIR”. The “fraction of patients who experienced a clinically significant event (CSE)” value in the assay on tumor [2] is “one third”. Moreover, the “time following administration out to which VGT-309 may continue to emit a signal in tissue” value with cancerous tissue (animal model studies suggest) is given as “seven days”. Besides, the “time after administration at which VGT-309 can fluoresce cancerous tissue” value with cancerous tissue (based on preclinical studies) is recorded as “two hours to four days”.
